This is an account of results in publication PMC7915588, “Polyphyllin D Shows Anticancer Effect through a Selective Inhibition of Src Homology Region 2-Containing Protein Tyrosine Phosphatase-2 (SHP2)” (Molecules, 2021).

Each structure is given as a SMILES string.

One assay deals with T1, PTPN3 (PTPH1) (Homo sapiens, UniProt P26045).
T1 construct: 403-913
T1 sequence (P26045 1-913): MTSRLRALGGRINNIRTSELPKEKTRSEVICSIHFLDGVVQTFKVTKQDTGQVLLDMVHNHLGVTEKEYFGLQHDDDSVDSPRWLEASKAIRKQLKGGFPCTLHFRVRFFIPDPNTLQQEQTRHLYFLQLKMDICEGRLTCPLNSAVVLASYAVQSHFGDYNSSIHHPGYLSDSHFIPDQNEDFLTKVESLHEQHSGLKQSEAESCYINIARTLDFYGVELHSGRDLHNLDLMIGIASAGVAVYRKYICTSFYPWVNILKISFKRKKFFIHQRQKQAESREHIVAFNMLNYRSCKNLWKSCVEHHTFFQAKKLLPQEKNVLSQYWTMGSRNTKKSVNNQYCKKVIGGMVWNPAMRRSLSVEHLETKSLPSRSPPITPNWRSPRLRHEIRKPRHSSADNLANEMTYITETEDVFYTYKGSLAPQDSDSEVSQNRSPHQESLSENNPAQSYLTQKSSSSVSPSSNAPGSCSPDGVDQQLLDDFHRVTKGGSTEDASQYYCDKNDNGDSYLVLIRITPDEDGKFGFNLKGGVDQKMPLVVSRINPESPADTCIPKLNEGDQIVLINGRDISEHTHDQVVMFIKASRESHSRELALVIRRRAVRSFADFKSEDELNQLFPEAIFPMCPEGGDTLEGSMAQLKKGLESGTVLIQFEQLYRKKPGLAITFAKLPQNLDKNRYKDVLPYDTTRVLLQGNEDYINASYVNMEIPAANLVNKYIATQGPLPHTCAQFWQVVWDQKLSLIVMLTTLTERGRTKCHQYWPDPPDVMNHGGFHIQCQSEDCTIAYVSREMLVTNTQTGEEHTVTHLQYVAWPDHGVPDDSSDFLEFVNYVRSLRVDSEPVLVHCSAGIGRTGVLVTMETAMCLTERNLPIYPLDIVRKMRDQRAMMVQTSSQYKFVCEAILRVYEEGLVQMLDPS
Nature of the assay: biochemical. The arrangement: Fluorogenic phosphatase assay, DiFMUP hydrolysis by recombinant PTPs, initial velocity, Ex/Em 355/460 nm. As to conditions: read-out: Inhibition by 20 µM polyphyllin D (%).

For a further assay, the target named is T2, PTPN5 (STEP) (Homo sapiens, UniProt P54829).
T2 construct: 313-565
T2 sequence (P54829 1-565): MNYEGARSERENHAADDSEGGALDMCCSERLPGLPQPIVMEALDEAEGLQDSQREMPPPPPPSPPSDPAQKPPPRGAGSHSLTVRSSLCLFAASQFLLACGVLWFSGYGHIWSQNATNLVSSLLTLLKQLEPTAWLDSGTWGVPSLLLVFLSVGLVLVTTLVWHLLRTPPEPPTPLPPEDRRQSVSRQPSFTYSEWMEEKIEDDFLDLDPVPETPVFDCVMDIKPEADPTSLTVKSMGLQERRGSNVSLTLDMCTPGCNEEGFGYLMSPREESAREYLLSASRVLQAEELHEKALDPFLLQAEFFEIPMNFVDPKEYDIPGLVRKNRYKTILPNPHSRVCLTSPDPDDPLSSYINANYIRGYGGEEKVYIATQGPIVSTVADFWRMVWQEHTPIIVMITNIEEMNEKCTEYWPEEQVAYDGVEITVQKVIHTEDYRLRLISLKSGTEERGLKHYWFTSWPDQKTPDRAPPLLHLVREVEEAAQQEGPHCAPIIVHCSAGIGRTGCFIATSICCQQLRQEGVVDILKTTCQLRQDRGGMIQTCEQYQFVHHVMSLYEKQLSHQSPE
Nature of the assay: biochemical. Set-up: Fluorogenic phosphatase assay, DiFMUP hydrolysis by recombinant PTPs, initial velocity, Ex/Em 355/460 nm. As to conditions: read-out: Inhibition by 20 µM polyphyllin D (%).

Usually inhibition stands for the share of the control response that was lost under treatment. For the compound `C[C@@H]1CC[C@@]2(OC1)O[C@H]1C[C@H]3[C@@H]4CC=C5C[C@@H](O[C@@H]6O[C@H](CO)[C@@H](O[C@@H]7O[C@@H](CO)[C@H](O)[C@H]7O)[C@H](O)[C@H]6O[C@@H]6O[C@@H](C)[C@H](O)[C@@H](O)[C@H]6O)CC[C@]5(C)[C@H]4CC[C@]3(C)[C@H]1[C@@H]2C` [polyphyllin D], the inhibition at 20 µM at PTPN3 (PTPH1) and at PTPN5 (STEP) was 0% throughout.
